The text below walks through data of patent US8232283B2, “Raf inhibitors” (Forma Therapeutics, Inc., priority 2008, dated 2012).

For test [1], the system named is HT-29 [B-Raf V600E mutant]. Description: Anti-proliferative activity, SRB assay, 72 hours. The format is cell-based. As to conditions: Homo sapiens, read-out: CELLULAR IC50 [μM] HT-29 [B-Raf V600E mutant]. The method, then:
We observed the surprising finding that compounds of the invention were useful in inhibiting proliferation of HT-29 tumor cells (see Table 3).
(§1) Cells were exposed to the test compounds at various concentrations appropriate to determine an IC50, for 72 hours, and cell proliferation was measured using the SRB assay according to Shekan et al (J Natl Cancer Inst (1990) 82, 1107-112) in order to estimate the IC50 values shown in Table 3.
(§2) Briefly, cells were plated in 96 well dishes 24 hours prior to compound addition at the densities specified in Table 11.1.
(§3) The assay was terminated with the addition of ice cold 10% TCA after growth medium has been removed and the plates were incubated over night at 4° C. The plates were then washed 5 times with water and 100 μl of a Sulforhodamine B solution ([…]) was added to each well. The plates were then incubated for 10 minutes at room temperature before removal of unbound dye by washing with 1% acetic acid. The bound dye was solubilized with 10 mM Trizma base and the absorbance read at OD520.
(§4) Inhibitory activity of the compounds was calculated as % inhibition of cell proliferation compared to cells treated with the solvent (DMSO).
On the technique in general: The SRB assay estimates cell density from bound dye.

Another test deals with A-431 [B-Raf wildtype]. The experiment in a line: Anti-proliferative activity, SRB assay, 72 hours. The format is cell-based. As to conditions: Homo sapiens, read-out: CELLULAR IC50 [μM] A-431 [B-Raf wildtype]. The protocol: as §1, §2, §3, §4

A word on the IC50: it is the point on the concentration scale where inhibition reaches its midpoint.

Regarding `COn1c(=O)c(-c2cc(NC(=O)c3ccc(Cl)cc3)ccc2Cl)cc2cnc(NCCN(C)C)nc21` [Compound 38, 4-Chloro-N-{4-chloro-3-[2-(2-dimethylamino-ethylamino)-8-methoxy-7-oxo-7,8-dihydro-pyrido[2,3-d]pyrimidin-6-yl]-phenyl}-benzamide], the IC50 (in test [1]; with A-431 [B-Raf wildtype]) was greater than 10 µM each time.
Take `COc1cc(C(F)(F)F)ccc1C(=O)Nc1ccc(-c2cc3cnc(NCCN(C)C)nc3n(OC)c2=O)c(Cl)c1` [Compound 51, N-{3-Chloro-4-[2-(2-dimethylamino-ethylamino)-8-methoxy-7-oxo-7,8-dihydro-pyrido[2,3-d]pyrimidin-6-yl]-phenyl}-2-methoxy-4-trifluoromethyl-benzamide]: the IC50 in test [1] was less than 5 µM; in the test with A-431 [B-Raf wildtype], less than 10 µM.
Take `COn1c(=O)c(-c2cc(NC(=O)c3ccc(Cl)c(C(F)(F)F)c3)ccc2Cl)cc2cnc(NCCN(C)C)nc21` [Compound 3, 4-Chloro-N-{4-chloro-3-[2-(2-dimethylamino-ethylamino)-8-methoxy-7-oxo-7,8-dihydro-pyrido[2,3-d]pyrimidin-6-yl]-phenyl}-3-trifluoromethyl-benzamide]: the IC50 in test [1] was less than 5 µM; with A-431 [B-Raf wildtype], greater than 10 µM.
Turning to `COn1c(=O)c(-c2cc(NC(=O)c3ccccc3Cl)ccc2Cl)cc2cnc(NCCN(C)C)nc21` [Compound 36, 2-Chloro-N-{4-chloro-3-[2-(2-dimethylamino-ethylamino)-8-methoxy-7-oxo-7,8-dihydro-pyrido[2,3-d]pyrimidin-6-yl]-phenyl}-benzamide], the IC50 (in test [1]; with A-431 [B-Raf wildtype]) was greater than 10 µM in each case.
As to `COn1c(=O)c(-c2cc(NC(=O)c3cc(C(F)(F)F)cc(C(F)(F)F)c3)ccc2Cl)cc2cnc(NCCN(C)C)nc21` [Compound 35, N-{4-Chloro-3-[2-(2-dimethylamino-ethylamino)-8-methoxy-7-oxo-7,8-dihydro-pyrido[2,3-d]pyrimidin-6-yl]-phenyl}-3,5-bis-trifluoromethyl-benzamide], the figures for the IC50 (in test [1]; in the test on A-431 [B-Raf wildtype]) were less than 5 µM and greater than 10 µM, respectively.
As to `COn1c(=O)c(-c2cc(NC(=O)c3ccc(C(F)(F)F)c(F)c3)ccc2Cl)cc2cnc(NCCN(C)C)nc21` [Compound 12, N-{4-Chloro-3-[2-(2-dimethylamino-ethylamino)-8-methoxy-7-oxo-7,8-dihydro-pyrido[2,3-d]pyrimidin-6-yl]-phenyl}-3-fluoro-4-trifluoromethyl-benzamide], the IC50 in test [1] was less than 10 µM; in the test on A-431 [B-Raf wildtype], greater than 10 µM.
Turning to `CCNc1cc(C(=O)Nc2ccc(Cl)c(-c3cc4cnc(NCCN(C)C)nc4n(OC)c3=O)c2)cc(Cl)n1` [Compound 63, 2-Chloro-N-(4-chloro-3-(2-(2-(dimethylamino)ethylamino)-8-methoxy-7-oxo-7,8-dihydropyrido[2,3-d]pyrimidin-6-yl)phenyl)-6-ethylamino-isonicotinamide], the IC50 in test [1] is less than 5 µM; in the test on A-431 [B-Raf wildtype], greater than 10 µM.
Consider `COn1c(=O)c(-c2cc(NC(=O)c3cc(Cl)nc(NCc4ccc(N5CCN(C)CC5)cc4)c3)ccc2Cl)cc2cnc(NCCN(C)C)nc21` [Compound 67, 2-Chloro-N-(4-chloro-3-(2-(2-(dimethylamino)ethylamino)-8-methoxy-7-oxo-7,8-dihydropyrido[2,3-d]pyrimidin-6-yl)phenyl)-6-(4-(4-methylpiperazin-1-yl)-benzylamino)-isonicotinamide], for which the IC50 in test [1] was less than 5 µM; with A-431 [B-Raf wildtype], less than 10 µM.
Regarding `COn1c(=O)c(-c2cc(NC(=O)c3cc(Cl)nc(N4CCN(C)CC4)c3)ccc2Cl)cc2cnc(NCCN(C)C)nc21` [Compound 62, 2-Chloro-N-(4-chloro-3-(2-(2-(dimethylamino)ethylamino)-8-methoxy-7-oxo-7,8-dihydropyrido[2,3-d]pyrimidin-6-yl)phenyl)-6-(4-methyl-piperazin-1-yl)-isonicotinamide], the IC50 is less than 5 µM in test [1] and greater than 10 µM with A-431 [B-Raf wildtype].
Taken in the same sequence, the figures for `COn1c(=O)c(-c2cc(NC(=O)Nc3cc(C(F)(F)F)ccc3F)ccc2Cl)cc2cnc(NCCN(C)C)nc21` [Compound 49, 1-{4-Chloro-3-[2-(2-dimethylamino-ethylamino)-8-methoxy-7-oxo-7,8-dihydro-pyrido[2,3-d]pynmidin-6-yl]-phenyl}-3-(2-fluoro-5-trifluoromethyl-phenyl)-urea] were less than 5 µM and greater than 10 µM.
Regarding `COn1c(=O)c(-c2cc(NC(=O)c3cc(Cl)nc(N4CCCC4)c3)ccc2Cl)cc2cnc(NCCN(C)C)nc21` [Compound 58, 2-Chloro-N-(4-chloro-3-(2-(2-(dimethylamino)ethylamino)-8-methoxy-7-oxo-7,8-dihydropyrido[2,3-d]pyrimidin-6-yl)phenyl)-6-pyrrolidin-1-yl-isonicotinamide], the half-maximal inhibitory concentration (IC50) is less than 5 µM in test [1] and less than 10 µM in the test with A-431 [B-Raf wildtype].
Consider `COn1c(=O)c(-c2cc(NC(=O)c3cc(C(F)(F)F)ccc3Cl)ccc2Cl)cc2cnc(NCCN(C)C)nc21` [Compound 29, 2-Chloro-N-{4-chloro-3-[2-(2-dimethylamino-ethylamino)-8-methoxy-7-oxo-7,8-dihydro-pyrido[2,3,-d]pyrimidin-6-yl]-phenyl}-5-trifluoromethyl-benzamide], for which the results for the IC50 (in test [1]; in the test with A-431 [B-Raf wildtype]) were less than 10 µM and greater than 10 µM, respectively.
For the molecule `COn1c(=O)c(-c2cc(NC(=O)c3cc(Cl)nc(N(C)C)c3)ccc2Cl)cc2cnc(NCCN(C)C)nc21` [Compound 59, 2-Chloro-N-(4-chloro-3-(2-(2-(dimethylamino)ethylamino)-8-methoxy-7-oxo-7,8-dihydropyrido[2,3-d]pyrimidin-6-yl)phenyl)-6-dimethylamino-isonicotinamide], the IC50 is less than 5 µM in test [1] and greater than 10 µM in the test on A-431 [B-Raf wildtype].
For `COn1c(=O)c(-c2cc(NC(=O)Nc3ccc(Cl)cc3)ccc2Cl)cc2cnc(NCCN(C)C)nc21` [Compound 46, 1-{4-Chloro-3-[2-(2-dimethylamino-ethylamino)-8-methoxy-7-oxo-7,8-dihydro-pyrido[2,3-d]pyrimidin-6-yl]-phenyl}-3-(4-chloro-phenyl)-urea], the half-maximal inhibitory concentration (IC50) in test [1] was less than 5 µM; in the test with A-431 [B-Raf wildtype], greater than 10 µM.
On to `COn1c(=O)c(-c2ccc(NC(=O)c3ccnc(N4CCOCC4)c3)cc2Cl)cc2cnc(NCCN(C)C)nc21` [Compound 54, N-{3-Chloro-4-[2-(2-dimethylamino-ethylamino)-8-methoxy-7-oxo-7,8-dihydro-pyrido[2,3-d]pymidin-6-yl]-phenyl}-2-morpholin-4-yl-isonicotinamide], for which the IC50 (in test [1]; in the test with A-431 [B-Raf wildtype]) was greater than 10 µM each time.
For the molecule `COn1c(=O)c(-c2ccc(NC(=O)c3ccc(Cl)c(C(F)(F)F)c3)cc2Cl)cc2cnc(NCCN(C)C)nc21` [Compound 6, 4-Chloro-N-{3-chloro-4-[2-(2-dimethylamino-ethylamino)-8-methoxy-7-oxo-7,8-dihydro-pyrido[2,3-d]pyrimidin-6-yl]-phenyl}-3-trifluoromethyl-benzamide], the IC50 was less than 5 µM in test [1] and less than 10 µM in the test with A-431 [B-Raf wildtype].
On to `COn1c(=O)c(-c2cc(NC(=O)c3cc4ccccc4n3C)ccc2Cl)cc2cnc(NCCN(C)C)nc21` [Compound 13, 1-Methyl-1H-indole-2-carboxylic acid {4-chloro-3-[2-(2-dimethylamino-ethylamino)-8-methoxy-7-oxo-7,8-dihydro-pyrido[2,3-d]pyrimidin-6-yl]-phenyl}-amide], for which the IC50 is less than 10 µM in test [1] and greater than 10 µM in the test with A-431 [B-Raf wildtype].
In the case of `COn1c(=O)c(-c2cc(NC(=O)c3cc(Cl)nc(NCCN(C)C)c3)ccc2Cl)cc2cnc(NCCN(C)C)nc21` [Compound 65, 2-Chloro-N-(4-chloro-3-(2-(2-(dimethylamino)ethylamino)-8-methoxy-7-oxo-7,8-dihydropyrido[2,3-d]pyrirnidin-6-yl)phenyl)-6-(2-dimethylaminoethylamino)-isonicotinamide], the figures for the IC50 (in test [1]; in the test on A-431 [B-Raf wildtype]) were less than 10 µM and greater than 10 µM, respectively.
Consider `COc1cc(C(F)(F)F)ccc1C(=O)Nc1ccc(Cl)c(-c2cc3cnc(NCCN(C)C)nc3n(OC)c2=O)c1` [Compound 15, N-{4-Chloro-3-[2-(2-dimethylamino-ethylamino)-8-methoxy-7-oxo-7,8-dihydro-pyrido[2,3-d]pyrimidin-6-yl]-phenyl}-2-methoxy-4-trifluoromethyl-benzamide], for which the IC50 in test [1] is less than 5 µM; in the test with A-431 [B-Raf wildtype] it was greater than 10 µM.
Taken in the same sequence, the figures for `COc1ccc(C(F)(F)F)cc1C(=O)Nc1ccc(Cl)c(-c2cc3cnc(NCCN(C)C)nc3n(OC)c2=O)c1` [Compound 14, N-{4-Chloro-3-[2-(2-dimethylamino-ethylamino)-8-methoxy-7-oxo-7,8-dihydro-pyrido[2,3-d]pyrimidin-6-yl]-phenyl}-2-methoxy-5-trifluoromethyl-benzamide] were less than 5 µM and greater than 10 µM.
With `COn1c(=O)c(-c2ccc(NC(=O)c3ccc(OCc4cccc(F)c4)c(Cl)c3)cc2Cl)cc2cnc(NCCN(C)C)nc21` [Compound 55, 3-Chloro-N-{3-chloro-4-[2-(2-dimethylamino-ethylamino)-8-methoxy-7-oxo-7,8-dihydro-pyrido[2,3-d]pyrimidin-6-yl]-phenyl}-4-(3-fluoro-benzyloxy)-benzamide], the IC50 in test [1] was less than 5 µM; in the test with A-431 [B-Raf wildtype], less than 10 µM.
